Data on two compounds can be found in patent US20180015066A1, “DRUG COMPLEXES COMPRISING ALPHA-FETOPROTEIN” (UNIVERSITY HEALTH NETWORK, priority 2015, published 2018).

This experiment has as its system cell lines carrying AFP receptor. As to the kind of experiment: Anti-cancer activities: in vitro antiproliferative assay (IC50). The experiment is classed as cell-based. The following applies: samples in PBS pH 7.4; concentration expressed as Pac or Pac-succinate; read-out: IC50 ± std. error (nM) for Pac or Pac-succinate.

For “paclitaxel succinate [Paclitaxel-Succinate]”, the IC50 was found to be 26.5 ± 11.3 nM.

Regarding `CC(=O)O[C@H]1C(=O)[C@@]2(C)[C@H]([C@H](OC(=O)c3ccccc3)[C@]3(O)C[C@H](OC(=O)[C@H](O)[C@@H](NC(=O)c4ccccc4)c4ccccc4)C(C)=C1C3(C)C)[C@]1(OC(C)=O)CO[C@@H]1C[C@@H]2O` [Paclitaxel], the half-inhibitory concentration (IC50) was 3.4 ± 0.8 nM.

The term IC50 denotes the concentration needed to halve the response being measured.
